Measured values reported in patent US20140079741A1, “INHIBITION AND TREATMENT OF BIOFILMS” (priority 2011, published 2014).
Entries after “also recorded” stand apart in the source; their conditions may differ.

How the values were obtained:
[1] = tested on: C. albicans WT CAF2-1 biofilms; assay: Biofilm cell viability by CellTiter-Blue staining; format: cell-based, Candida albicans; conditions: 24 h
Procedure: To this end, cultures of the WT CAF2-1 were grown overnight (2*10^8 cells/ml) in YPD (1% yeast extract, 2% peptone, 2% glucose) and washed 3 times in PBS (pH 7.4). After dilution (OD600=0.5) in SC (1% CSM, complete amino acid supplement mixture, 1% YNB, yeast nitrogen base; 2% glucose), the cultures were resuspended (100 μl/well) in a 96well microtiter plate. After 1 h of adhesion, the adherent WT cells were incubated with or without 2 mM (about 500 μg/ml) diclofenac (in DMSO, resulting in final concentration of 2.4% DMSO) and allowed biofilm growth for 16 h in SC. Next, the resulting biofilms were washed with PBS and treated with various concentrations of miconazole (0-500 μM) for 24 h in the absence or presence of diclofenac. After washing, the remaining living cells using the CellTiter-Blue quantification method were determined.
(§1) Using the same setup as above, WT biofilms grown in the presence or absence of diclofenac (0.5-3 mM or 148-888 μg/mL) were incubated with various concentrations of Caspofungin (0-150 μM) for 24 h, both in the presence or absence of diclofenac. After washing, the remaining living cells within the biofilm was determined by CellTiter-Blue quantification. The MIC50 of caspofungin, diclofenac and the combination of both drugs against pretreated or mature C. albicans biofilms was quantified by XTT reduction assay (Ramage et al.).

[2] = tested on: C. albicans Δefg1 biofilms; assay: Biofilm activity assay, crystal violet quantification (BEC50); format: cell-based, Candida albicans
Procedure: (§2) Biofilm activity assay. The activity of miconazole and fluconazole against 16 h-old C. albicans biofilms (10^7 cells/well) was assessed using the crystal violet quantification method. The biofilm-eradicating capacity of a compound was determined as the minimal concentration resulting in 50% eradication of the biofilm (BEC50).
(§3) Miconazole sensitivity was analyzed of biofilms of C. albicans homozygous null mutants affected in genes involved in the cyclic AMP signaling pathway, namely Δcdc35, Δras1, Δpde1, Δpde2 and Δefg1. To this end, the inventors incubated 16 h-old C. albicans biofilms with various concentrations of miconazole for 24 h and determined the remaining biomass using the crystal violet quantification method.

[3] = tested on: C. albicans reintegrant Δefg1(EFG1) biofilms; assay: as above; format: cell-based, Candida albicans; conditions: for sensitivity of biofilms to miconazole: Δefg1(EFG1)
Procedure: as §2, §3

[4] = tested on: C. albicans biofilm cells; assay: Intracellular accumulation of miconazole in biofilm cells (quantitative HPLC); format: cell-based, Candida albicans
Procedure: Quantitative analysis of intracellular accumulation of miconazole in C. albicans biofilm cells. […] After incubation, treated biofilms were resuspended and pooled per 5 wells. After centrifugation, samples were taken for cell counting using a Thoma counting chamber, whereafter the pellet was resuspended in 300 μl 70% acetonitrile/30% PBS. Miconazole concentration in the cell lysates was determined using HPLC and normalized to the number of cells in the pellet. Statistical analysis was performed using unpaired student t test; differences were considered significant if p<0.05.
The intracellular accumulation of miconazole in Δefg1 and WT biofilms upon miconazole treatment was determined to investigate whether the increased miconazole sensitivity of Δefg1 biofilms is due to an increased uptake or decreased efflux of miconazole. To this end, 16 h-old Δefg1 and WT C. albicans biofilms were treated with different concentrations of miconazole for 4 h and the concentration of miconazole in the biofilm cells via HPLC analysis was determined.
The intracellular accumulation of miconazole in WT biofilms grown in the prescence or absence of 500 μg/ml diclofenac upon miconazole treatment was determined to investigate whether the increased miconazole sensitivity of diclofenac-treated WT biofilms is due to an increased uptake or decreased efflux of miconazole. […]

[5] = tested on: C. albicans biofilms of wild type CAF2; assay: Biofilm activity assay, crystal violet quantification (BEC50); format: cell-based, Candida albicans
Procedure: as §2, §3
To this end, cultures of the WT CAF2-1 were grown overnight (2×10^8 cells/ml) in YPD (1% yeast extract, 2% peptone, 2% glucose) and washed 3 times in PBS (pH 7.4). After dilution (OD600=0.5) in SC (1% CSM, complete amino acid supplement mixture, 1% YNB, yeast nitrogen base; 2% glucose), the cultures were resuspended (100 μl/well) in a 96well microtiter plate. After 1 h of adhesion, the adherent WT cells were incubated with or without 500 μg/ml diclofenac and allowed biofilm formation for 16 h. Next, the resulting biofilms were washed with PBS and treated with various concentrations of miconazole for 24 h in the absence or presence of diclofenac. After washing, the remaining biomass was determined using the crystal violet quantification method.
The biofilm-eradicating capacity of a compound was determined as the minimal concentration resulting in 50% eradication of the biofilm (BEC50).

C. albicans WT biofilms = assay: Biofilm survival by CFU determination (plating on YPD); format: cell-based, Candida albicans; conditions: WT biofilms grown with 500 μg/ml diclofenac, AmB 2.5-10 μg/ml, 24 h
Procedure: Using the same setup as in Example 2, WT biofilms grown in the presence or absence of diclofenac (500 μg/ml) or Δefg1 biofilms were incubated with various concentrations of Amphotericin B (AmB) (2.5-10 μg/ml) for 24 h, both in the presence or absence of diclofenac. After washing, the remaining living cells within the biofilm were determined by plating on YPD and determination of colony forming units (CFUs).

[6] = tested on: planktonic cultures of C. albicans CAF2-1; assay: MIC50 against planktonic cultures (NCCLS M27-A3); format: cell-based, Candida albicans; conditions: Candida albicans, planktonic
Procedure: (§4) Similar results were obtained by determination of the MIC50 values. The susceptibility testing and determination of minimal inhibitory concentrations (MIC) of diclofenac and caspofungin, and combinations thereof that inhibit fungal growth by 50% (MIC50) were performed according the NCCLS M27-A3 protocol (2008).

[7] = tested on: biofilms of C. albicans CAF2-1; assay: MIC50 against biofilms (XTT reduction assay); format: cell-based, Candida albicans; conditions: for MIC50: Candida albicans
Procedure: as §1, §4

[8] = tested on: C. albicans CAF2 biofilms on implanted catheter fragments; assay: Rat subcutaneous catheter infection model (in vivo biofilm susceptibility); set-up: species or system Candida albicans
Procedure: A rat subcutaneous catheter infection model was used for in vivo biofilm susceptibility studies, in which 6 rats were treated with sterile saline (control, 40 catheters), 6 rats with diclofenac (48 catheters), 5 rats with caspofungin (40 catheters) and 6 rats with a combination of diclofenac and caspofungin (45 catheters).
Diclofenac and caspofungin solutions for intravenous injection were prepared in sterile physiological solution. The administration of diclofenac (3 mg/kg) started immediately after the catheter implant and continued daily up to 9 days. The treatment with caspofungin (3 mg/kg) was initiated after 48 h of in vivo biofilm development and maintained by daily injections for 7 days. Sterile saline was administered to the control group. Further analysis and quantification of the number of cells per individual biofilm was performed as previously described. Statistical analysis was performed using unpaired t-test; differences were considered significant if p<0.05. Data are the means and SEM of 2 independent experiments. Six independent catheters retrieved from each test group were used for scanning electron microscopy (SEM) analyses. Prior to the SEM analysis, each catheter fragment was cut longitudinally through the lumen and subsequently prepared for microscopy as previously described.

[9] = tested on: C. albicans biofilm cells; conditions: caspofungin doses 0.05 μM-0.5 μM, background statement; cited from earlier work
[10] = tested on: C. albicans biofilms grown on catheters; assay: In vitro biofilm drug susceptibility on polyurethane catheter pieces (CFU); format: cell-based, Candida albicans
Procedure: In an alternative setup, in vitro biofilm drug susceptibility assays were performed using serum-coated 1 cm polyurethane catheter pieces (Arrow International Reading) as described previously. Biofilms were grown in RPMI 1640 (pH 7.0) and Candida cells were allowed to adhere to the substrate for 90 min.
Diclofenac (2 mM) was administered during the period of adhesion of C. albicans cells on the catheters and throughout the period of biofilm formation. Catheter fragments containing diclofenac-pretreated or untreated mature biofilms were washed and subsequently incubated with caspofungin (125 μM) or water in the presence or absence of diclofenac (2 mM) for 24 h, respectively. Biofilms were washed and quantified by determination of colony forming units. Untreated biofilms were considered as controls. Statistical analysis was performed using unpaired t-test; differences were considered significant if p<0.05. Data are the mean and SEM of five independent experiments using at least two catheters per test group.
Similar results were obtained when assessing the antibiofilm effect of caspofungin against mature biofilms, which were formed on diclofenac-soaked catheter fragments versus those formed on unsoaked catheter fragments.

[11] = rats, caspofungin 3 mg/kg 7 days with 48 h diclofenac-pretreatment and further diclofenac 3 mg/kg

With `Clc1ccc(COC(Cn2ccnc2)c2ccc(Cl)cc2Cl)c(Cl)c1` (stereo not shown) [miconazole] the “sensitivity to miconazole compared to untreated WT biofilms” value ([1]; biofilms treated with 2 mM diclofenac, miconazole 0-500 μM) was “increased sensitivity”, the BEC50 ([2]; Δefg1, 16 h-old biofilms, 24 h treatment) was 25 µg/mL and the “sensitivity of biofilms to miconazole” value ([2]; Δefg1, low miconazole dose 31 μg/ml) was “sensitive”. For the same compound, the BEC50 ([3]; reintegrant Δefg1(EFG1), 16 h-old biofilms, 24 h treatment) was 100 µg/mL, the “sensitivity of biofilms to miconazole” value ([3]; high miconazole dose 250 μg/ml) was “as sensitive to miconazole as Δefg1 biofilms” and the “sensitivity of biofilms to miconazole” value ([3]; moderate miconazole doses 62-125 μg/ml) was “intermediate miconazole sensitivity phenotype”. The “intracellular miconazole levels in diclofenac-treated compared to untreated WT biofilm cells” value ([4]; 62-250 μg/ml miconazole and 500 μg/ml diclofenac) was “significantly increased”, the “intracellular miconazole levels in Δefg1 biofilm cells compared to WT biofilm cells” value ([4]; 62-250 μg/ml miconazole, 4 h) was “significantly increased” and the “BEC50 (minimal concentration resulting in 50% eradication of the biofilm)” value ([5]; WT CAF2, 16 h-old biofilms, 24 h treatment, no diclofenac) was over 250 µg/mL. The BEC50 ([5]; WT biofilms grown and treated in presence of 500 μg/ml diclofenac) was 46 µg/mL and the “sensitivity of biofilms to miconazole” value ([5]; WT, high miconazole dose 250 μg/ml) was “resistant”.
With `C[C@@H]1[C@H](O)[C@@H](C)/C=C/C=C/C=C/C=C/C=C/C=C/C=C/[C@H](O[C@@H]2O[C@H](C)[C@@H](O)[C@H](N)[C@@H]2O)C[C@@H]2O[C@](O)(C[C@@H](O)C[C@@H](O)[C@H](O)CC[C@@H](O)C[C@@H](O)CC(=O)O[C@H]1C)C[C@H](O)[C@H]2C(=O)O` [Amphotericin B] the “drop of % survival compared to diclofenac-untreated biofilms” value (C. albicans WT biofilms) was “about 5 fold”.
With `CC[C@H](C)C[C@H](C)CCCCCCCCC(=O)N[C@H]1C[C@@H](O)[C@@H](NCCN)NC(=O)[C@@H]2[C@@H](O)CCN2C(=O)[C@H]([C@H](O)CCN)NC(=O)[C@H]([C@H](O)[C@@H](O)c2ccc(O)cc2)NC(=O)[C@@H]2C[C@@H](O)CN2C(=O)[C@H]([C@@H](C)O)NC1=O` [caspofungin] the MIC50 ([6]; RPMI 1640, caspofungin alone) was under 0.05 µM, the MIC50 ([6]; combination of caspofungin and 2 mM diclofenac) was 0.23 µM and the “drop of % survival compared to diclofenac-untreated biofilms” value ([1]; WT biofilms grown with 0.5-3 mM diclofenac, various caspofungin concentrations) was “about 5 fold”. The MIC50 ([7]; biofilms, caspofungin alone) was 6 µM, the MIC50 ([7]; biofilms, caspofungin in combination with 2 mM diclofenac-pretreatment) was under 0.75 µM and the MIC50 ([7]; coincubation of mature biofilms with caspofungin and 2 mM diclofenac) was 1.5 µM. For the same compound, the “MIC50 against biofilms relative to MIC50 against planktonic cultures” value ([7]; caspofungin alone) was “at least 100 times”, the FICI ([7]; diclofenac coincubation/caspofungin combination) was 0.25 and the FICI ([7]; diclofenac pretreatment/caspofungin combination) was 0.125. The “sterile catheter fragments retrieved” value ([8]; rats treated with both caspofungin and diclofenac) was 29%, the “number of sterile catheters retrieved” value ([8]; rats treated with both caspofungin and diclofenac (45 catheters)) was “thirteen” and the “sterile catheter fragments retrieved” value ([8]; rats treated with caspofungin alone) was 7.5%. The “number of sterile catheters retrieved” value ([8]; rats treated with caspofungin alone (40 catheters)) was “three”, the “reduction in biofilm cell numbers compared to control treatment” value [8, 11] was “more than 15 fold” and the “reduction in cell numbers compared to caspofungin treatment alone” value [8, 11] was “more than 5 fold”. For the same compound, the “reduction in the number of surviving biofilm cells compared to control treatment” value ([8]; rats, caspofungin alone 3 mg/kg daily injections for 7 days) was “more than 10 fold”, the “biofilm structure by scanning electron microscopy” value ([8]; rats, caspofungin without diclofenac-pretreatment) was “biofilm cells formed in minor clusters” and the “biofilm structure by scanning electron microscopy” value ([8]; rats, diclofenac and caspofungin together) was “only scattered yeast cells and hyphae were observed”. For the same compound, the “metabolic activity of C. albicans biofilm cells” value [9] was “do not decrease the metabolic activity”, the “reduction of the number of biofilm cells compared to control treatment” value ([10]; 125 μM caspofungin alone, 24 h, untreated/unsoaked catheters) was “did not result in a statistically significant reduction; also recorded: did not display significant activity” and the “reduction of the number of in vitro biofilm cells compared to untreated biofilms” value ([10]; 2 mM diclofenac during biofilm growth, then 125 μM caspofungin 24 h) was “at least 12 fold”. The “reduction of the number of biofilm cells compared to control treatment” value ([10]; biofilms grown on diclofenac-soaked catheters, 125 μM caspofungin) was “at least 17 fold”.
